Reference: BindingDB's records for doi:10.1016/j.bmcl.2010.10.033 (Glaxosmithkline, 2010)

Columns and labels:
[1] = Antagonist activity at CCR5 in HOS cells assessed as inhibition of HIV-1 Ba-L infection
[2] = Antagonist activity at CCR5 in human peripheral blood lymphocytes cells assessed as inhibition of HIV-1 Ba-L infection

Row | SMILES | IC50 [1] [nM] | IC50 [2] [nM]
1 | C=CCN(C(=O)Cc1ccc(C(N)=O)cc1)C1CCN(CCC2(c3cccc(F)c3)CCN(C(=O)c3cc(S(=O)(=O)NC(C)(C)C)c(F)cc3Cl)CC2)CC1 [4-(2-(allyl(1-(2-(1-(5-(N-tert-butylsulfamoyl)-2-chloro-4-fluorobenzoyl)-4-(3-fluorophenyl)piperidin-4-yl)ethyl)piperidin-4-yl)amino)-2-oxoethyl)benzamide] | 210 | 
2 | C=CCN(C(=O)Cc1ccc(F)cc1)C1CCN(CCC2(c3cccc(F)c3)CCN(C(=O)c3cc(S(=O)(=O)NC(C)(C)C)c(F)cc3Cl)CC2)CC1 [N-allyl-N-(1-(2-(1-(5-(N-tert-butylsulfamoyl)-2-chloro-4-fluorobenzoyl)-4-(3-fluorophenyl)piperidin-4-yl)ethyl)piperidin-4-yl)-2-(4-fluorophenyl)acetamide] | 52 | 
3 | C=CCN(C(=O)Nc1ccc(S(C)(=O)=O)cc1)C1CCN(CCC2(c3cccc(F)c3)CCN(C(=O)c3cc(S(=O)(=O)NC(C)(C)C)c(F)cc3Cl)CC2)CC1 [5-(4-(2-(4-(1-allyl-3-(4-(methylsulfonyl)phenyl)ureido)piperidin-1-yl)ethyl)-4-(3-fluorophenyl)piperidine-1-carbonyl)-N-tert-butyl-4-chloro-2-fluorobenzenesulfonamide] | 11.5 | 35
4 | C=CCN(C(=O)CCc1ccc(OC(F)(F)F)cc1)C1CCN(CCC2(c3cccc(F)c3)CCN(C(=O)c3cc(S(=O)(=O)NC)c(F)cc3Cl)CC2)CC1 [N-allyl-N-(1-(2-(1-(2-chloro-4-fluoro-5-(N-methylsulfamoyl)benzoyl)-4-(3-fluorophenyl)piperidin-4-yl)ethyl)piperidin-4-yl)-3-(4-(trifluoromethoxy)phenyl)propanamide] | 420 | 
5 | C=CCN(C(=O)Nc1ccc(F)cc1)C1CCN(CCC2(c3cccc(F)c3)CCN(C(=O)c3cc(S(=O)(=O)NC(C)(C)C)c(F)cc3Cl)CC2)CC1 [5-(4-(2-(4-(1-allyl-3-(4-fluorophenyl)ureido)piperidin-1-yl)ethyl)-4-(3-fluorophenyl)piperidine-1-carbonyl)-N-tert-butyl-4-chloro-2-fluorobenzenesulfonamide] | 34 | 
6 | C=CCN(C(=O)OCc1ccc(F)cc1)C1CCN(CCC2(c3cccc(F)c3)CCN(C(=O)c3cc(S(=O)(=O)NC(C)(C)C)c(F)cc3Cl)CC2)CC1 [4-fluorobenzyl allyl(1-(2-(1-(5-(N-tert-butylsulfamoyl)-2-chloro-4-fluorobenzoyl)-4-(3-fluorophenyl)piperidin-4-yl)ethyl)piperidin-4-yl)carbamate] | 22 | 
7 | C=CCN(C(=O)NCc1ccc(C(N)=O)cc1)C1CCN(CCC2(c3cccc(F)c3)CCN(C(=O)c3cc(S(=O)(=O)NC(C)(C)C)c(F)cc3Cl)CC2)CC1 [4-((3-allyl-3-(1-(2-(1-(5-(N-tert-butylsulfamoyl)-2-chloro-4-fluorobenzoyl)-4-(3-fluorophenyl)piperidin-4-yl)ethyl)piperidin-4-yl)ureido)methyl)benzamide] | 3100 | 
8 | C=CCN(C(=O)OCc1ccc(C(F)(F)F)cc1)C1CCN(CCC2(c3cccc(F)c3)CCN(C(=O)c3cc(S(=O)(=O)NC(C)(C)C)c(F)cc3Cl)CC2)CC1 [4-(trifluoromethyl)benzyl allyl(1-(2-(1-(5-(N-tert-butylsulfamoyl)-2-chloro-4-fluorobenzoyl)-4-(3-fluorophenyl)piperidin-4-yl)ethyl)piperidin-4-yl)carbamate] | 15 | 40
9 | CCCCN(C(=O)NCc1ccc(C#N)cc1)C1CCN(CCC2(c3cccc(F)c3)CCN(C(=O)c3cc(S(=O)(=O)NC(C)(C)C)c(F)cc3Cl)CC2)CC1 [N-tert-butyl-5-(4-(2-(4-(1-butyl-3-(4-cyanobenzyl)ureido)piperidin-1-yl)ethyl)-4-(3-fluorophenyl)piperidine-1-carbonyl)-4-chloro-2-fluorobenzenesulfonamide] | 2.6 | 11
10 | C=CCN(C(=O)OCc1ccc([N+](=O)[O-])cc1)C1CCN(CCC2(c3cccc(F)c3)CCN(C(=O)c3cc(S(=O)(=O)NC(C)(C)C)c(F)cc3Cl)CC2)CC1 [4-nitrobenzyl allyl(1-(2-(1-(5-(N-tert-butylsulfamoyl)-2-chloro-4-fluorobenzoyl)-4-(3-fluorophenyl)piperidin-4-yl)ethyl)piperidin-4-yl)carbamate] | 8.6 | 24
11 | C=CCN(C(=O)OCc1ccc(S(C)(=O)=O)cc1)C1CCN(CCC2(c3cccc(F)c3)CCN(C(=O)c3cc(S(=O)(=O)NC(C)(C)C)c(F)cc3Cl)CC2)CC1 [4-(methylsulfonyl)benzyl allyl(1-(2-(1-(5-(N-tert-butylsulfamoyl)-2-chloro-4-fluorobenzoyl)-4-(3-fluorophenyl)piperidin-4-yl)ethyl)piperidin-4-yl)carbamate] | 17 | 4.5
12 | C=CCN(C(=O)NCc1ccc(F)cc1)C1CCN(CCC2(c3cccc(F)c3)CCN(C(=O)c3cc(S(=O)(=O)NC(C)(C)C)c(F)cc3Cl)CC2)CC1 [5-(4-(2-(4-(1-allyl-3-(4-fluorobenzyl)ureido)piperidin-1-yl)ethyl)-4-(3-fluorophenyl)piperidine-1-carbonyl)-N-tert-butyl-4-chloro-2-fluorobenzenesulfonamide] | 46 | 
13 | C=CCN(C(=O)OCc1ccc(C#N)cc1)C1CCN(CCC2(c3cccc(F)c3)CCN(C(=O)c3cc(S(=O)(=O)NC(C)(C)C)c(F)cc3Cl)CC2)CC1 [4-cyanobenzyl allyl(1-(2-(1-(5-(N-tert-butylsulfamoyl)-2-chloro-4-fluorobenzoyl)-4-(3-fluorophenyl)piperidin-4-yl)ethyl)piperidin-4-yl)carbamate] | 4.5 | 
14 | C=CCN(C(=O)NCc1ccc(C#N)cc1)C1CCN(CCC2(c3cccc(F)c3)CCN(C(=O)c3cc(S(=O)(=O)NC(C)(C)C)c(F)cc3Cl)CC2)CC1 [5-(4-(2-(4-(1-allyl-3-(4-cyanobenzyl)ureido)piperidin-1-yl)ethyl)-4-(3-fluorophenyl)piperidine-1-carbonyl)-N-tert-butyl-4-chloro-2-fluorobenzenesulfonamide] | 3.9 | 3.7
15 | C=CCN(C(=O)CCc1ccc(C#N)cc1)C1CCN(CCC2(c3cccc(F)c3)CCN(C(=O)c3cc(S(=O)(=O)NC)c(F)cc3Cl)CC2)CC1 [N-allyl-N-(1-(2-(1-(2-chloro-4-fluoro-5-(N-methylsulfamoyl)benzoyl)-4-(3-fluorophenyl)piperidin-4-yl)ethyl)piperidin-4-yl)-3-(4-cyanophenyl)propanamide] | 150 | 
16 | C=CCN(C(=O)Cc1ccc(C(F)(F)F)cc1)C1CCN(CCC2(c3cccc(F)c3)CCN(C(=O)c3cc(S(=O)(=O)NC(C)(C)C)c(F)cc3Cl)CC2)CC1 [N-allyl-N-(1-(2-(1-(5-(N-tert-butylsulfamoyl)-2-chloro-4-fluorobenzoyl)-4-(3-fluorophenyl)piperidin-4-yl)ethyl)piperidin-4-yl)-2-(4-(trifluoromethyl)phenyl)acetamide] | 3.3 | 53
17 | C=CCN(C(=O)Nc1ccc(C(F)(F)F)cc1)C1CCN(CCC2(c3cccc(F)c3)CCN(C(=O)c3cc(S(=O)(=O)NC(C)(C)C)c(F)cc3Cl)CC2)CC1 [5-(4-(2-(4-(1-allyl-3-(4-(trifluoromethyl)phenyl)ureido)piperidin-1-yl)ethyl)-4-(3-fluorophenyl)piperidine-1-carbonyl)-N-tert-butyl-4-chloro-2-fluorobenzenesulfonamide] | 64 | 
18 | C=CCN(C(=O)Nc1ccc(OC(C)=O)cc1)C1CCN(CCC2(c3cccc(F)c3)CCN(C(=O)c3cc(S(=O)(=O)NC(C)(C)C)c(F)cc3Cl)CC2)CC1 [4-(3-allyl-3-(1-(2-(1-(5-(N-tert-butylsulfamoyl)-2-chloro-4-fluorobenzoyl)-4-(3-fluorophenyl)piperidin-4-yl)ethyl)piperidin-4-yl)ureido)phenyl acetate] | 60 | 
19 | C=CCN(C(=O)OCc1ccc(C(=O)OC)cc1)C1CCN(CCC2(c3cccc(F)c3)CCN(C(=O)c3cc(S(=O)(=O)NC(C)(C)C)c(F)cc3Cl)CC2)CC1 [methyl 4-((allyl(1-(2-(1-(5-(N-tert-butylsulfamoyl)-2-chloro-4-fluorobenzoyl)-4-(3-fluorophenyl)piperidin-4-yl)ethyl)piperidin-4-yl)carbamoyloxy)methyl)benzoate] | 41 | 
20 | C=CCN(C(=O)Nc1ccc(C#N)cc1)C1CCN(CCC2(c3cccc(F)c3)CCN(C(=O)c3cc(S(=O)(=O)NC(C)(C)C)c(F)cc3Cl)CC2)CC1 [5-(4-(2-(4-(1-allyl-3-(4-cyanophenyl)ureido)piperidin-1-yl)ethyl)-4-(3-fluorophenyl)piperidine-1-carbonyl)-N-tert-butyl-4-chloro-2-fluorobenzenesulfonamide] | 20.5 | 25
21 | C=CCN(C(=O)OCc1ccc(OC(F)(F)F)cc1)C1CCN(CCC2(c3cccc(F)c3)CCN(C(=O)c3cc(S(=O)(=O)NC(C)(C)C)c(F)cc3Cl)CC2)CC1 [4-(trifluoromethoxy)benzyl allyl(1-(2-(1-(5-(N-tert-butylsulfamoyl)-2-chloro-4-fluorobenzoyl)-4-(3-fluorophenyl)piperidin-4-yl)ethyl)piperidin-4-yl)carbamate] | 27 | 
22 | C=CCN(C(=O)NCc1ccc(C(F)(F)F)cc1)C1CCN(CCC2(c3cccc(F)c3)CCN(C(=O)c3cc(S(=O)(=O)NC(C)(C)C)c(F)cc3Cl)CC2)CC1 [5-(4-(2-(4-(1-allyl-3-(4-(trifluoromethyl)benzyl)ureido)piperidin-1-yl)ethyl)-4-(3-fluorophenyl)piperidine-1-carbonyl)-N-tert-butyl-4-chloro-2-fluorobenzenesulfonamide] | 6.9 | 42
23 | C=CCN(C(=O)Cc1ccc(S(C)(=O)=O)cc1)C1CCN(CCC2(c3cccc(F)c3)CCN(C(=O)c3cc(S(=O)(=O)NC(C)(C)C)c(F)cc3Cl)CC2)CC1 [N-allyl-N-(1-(2-(1-(5-(N-tert-butylsulfamoyl)-2-chloro-4-fluorobenzoyl)-4-(3-fluorophenyl)piperidin-4-yl)ethyl)piperidin-4-yl)-2-(4-(methylsulfonyl)phenyl)acetamide] | 65 | 
